# How the values were obtained:
# SK-MEL-28 = assay: NCI-60 single-dose antiproliferative assay (SRB); type: cell-based; conditions: Homo sapiens; 10 μM single dose; SK-MEL-28, Melanoma; read-out: Cell Growth inhibition Percent
# Outline: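 A 48 h exposure to 10 µM compound, in triplicate wells, followed 24 h of cell attachment in RPMI 1640 with 5% FBS and 2 mM glutamine. TCA-fixed cells were stained with SRB and read at 515 nm to give percent growth relative to controls.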
# FGFR 1 = biological target: T1, FGFR 1 (Homo sapiens, UniProt P11362); assay: Z'-LYTE kinase inhibition assay (SelectScreen); type: biochemical
# T1 construct: purchased Thermo Fischer Scientific (SelectScreen service)
# T1 sequence (P11362 22-822): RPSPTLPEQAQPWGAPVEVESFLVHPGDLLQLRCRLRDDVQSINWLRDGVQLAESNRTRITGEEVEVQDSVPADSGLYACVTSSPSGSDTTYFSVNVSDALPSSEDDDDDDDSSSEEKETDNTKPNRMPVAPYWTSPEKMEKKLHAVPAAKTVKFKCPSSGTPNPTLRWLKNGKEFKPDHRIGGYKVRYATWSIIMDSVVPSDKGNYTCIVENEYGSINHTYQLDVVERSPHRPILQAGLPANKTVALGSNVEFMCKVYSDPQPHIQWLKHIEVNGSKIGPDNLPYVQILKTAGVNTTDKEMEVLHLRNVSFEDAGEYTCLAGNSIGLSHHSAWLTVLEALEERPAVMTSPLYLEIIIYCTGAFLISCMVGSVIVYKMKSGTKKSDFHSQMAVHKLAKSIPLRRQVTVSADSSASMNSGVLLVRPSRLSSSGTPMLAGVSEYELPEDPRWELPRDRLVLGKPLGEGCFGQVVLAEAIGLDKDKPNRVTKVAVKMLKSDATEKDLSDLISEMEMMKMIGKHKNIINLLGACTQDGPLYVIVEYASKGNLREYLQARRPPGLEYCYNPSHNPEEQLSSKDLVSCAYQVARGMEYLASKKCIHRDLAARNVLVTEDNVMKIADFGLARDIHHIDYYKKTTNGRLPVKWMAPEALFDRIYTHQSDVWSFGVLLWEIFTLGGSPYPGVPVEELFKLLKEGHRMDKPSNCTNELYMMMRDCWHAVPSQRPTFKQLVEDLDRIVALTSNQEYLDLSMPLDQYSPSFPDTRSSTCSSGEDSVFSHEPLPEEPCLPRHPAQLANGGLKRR
# Description: (§1) To test the potential kinase inhibitory activity of compound 15c, initial single dose testing was performed at 10 μM on a panel of kinases and their inhibition % were determined.
# (§2) […]. Additional file 1; S3: In vitro biological activity).
# (§3) The FGFR, VEGFR-2 and RET tyrosine kinase assays were carried out at Thermo Fischer Scientific, USA (www.thermofischer.com/selectscreen). (For further details see Additional file 1; S3: In vitro biological activity).
# (§4) The FGFR, VEGFR-2 and RET tyrosine kinase assays were performed at Thermo Fischer Scientific, USA (www.thermofischer.com/selectscreen). The assay was performed to evaluate the inhibitory activity of the designed compound applying the Z'-LYTE biochemical assay employing a fluorescence-based, coupled-enzyme format based on the differential sensitivity of phosphorylate and non-phosphorylate peptides to the proteolytic cleavage. The peptide substrate is characterized with two fluorophores, one at each end, that make up a FRET pair ^9.
# (§5) The Z´-LYTE biochemical assay employs a fluorescence-based, coupled-enzyme format and is based on the differential sensitivity of phosphorylated and non-phosphorylated peptides to proteolytic cleavage. The peptide substrate is labeled with two fluorophores—one at each end—that make up a FRET pair. In the primary reaction, the kinase transfers the gamma-phosphate of ATP to a single tyrosine, serine or threonine residue in a synthetic FRET-peptide. In the secondary reaction, a site-specific protease recognizes and cleaves non-phosphorylated FRET-peptides. Phosphorylation of FRET-peptides suppresses cleavage by the Development Reagent. Cleavage disrupts FRET between the donor (i.e., coumarin) and acceptor (i.e., fluorescein) fluorophores on the FRET-peptide, whereas uncleaved, phosphorylated FRET-peptides maintain FRET. A ratiometric method, which calculates the ratio (the Emission Ratio) of donor emission to acceptor emission after excitation of the donor fluorophore at 400 nm, is used to quantitate reaction progress, as shown in the equation below. A significant benefit of this ratiometric method for quantitating reaction progress is the elimination of wellto-well variations in FRET-peptide concentration and signal intensities. […]. Both cleaved and uncleaved FRET-peptides contribute to the fluorescence signals and therefore to the Emission Ratio. The extent of phosphorylation of the FRET-peptide can be calculated from the Emission Ratio. The Emission Ratio will remain low if the FRET-peptide is phosphorylated (i.e., no kinase inhibition) and will be high if the FRET-peptide is non-phosphorylated (i.e., kinase inhibition).
# (§6) Test Compounds the Test Compounds are screened in 1% DMSO (final) in the well. For 10 point titrations, 3-fold serial dilutions are conducted from the starting concentration of the customer’s choosing. Peptide/Kinase Mixtures All Peptide/Kinase Mixtures are diluted to a 2X working concentration in the appropriate Kinase Buffer (see section Kinase Specific Assay Conditions for a complete description). ATP Solution All ATP Solutions are diluted to a 4X working concentration in Kinase Buffer (50 mM HEPES pH 7.5, 0.01% BRIJ-35, 10 mM MgCl2, 1 mM EGTA). ATP Km apparent is previously determined using a Z´-LYTE assay.
# RET = biological target: T2, RET (Homo sapiens, UniProt P07949); assay: Z'-LYTE kinase inhibition assay (SelectScreen); type: biochemical
# T2 construct: purchased Thermo Fischer Scientific (SelectScreen service)
# T2 sequence (P07949 29-1114): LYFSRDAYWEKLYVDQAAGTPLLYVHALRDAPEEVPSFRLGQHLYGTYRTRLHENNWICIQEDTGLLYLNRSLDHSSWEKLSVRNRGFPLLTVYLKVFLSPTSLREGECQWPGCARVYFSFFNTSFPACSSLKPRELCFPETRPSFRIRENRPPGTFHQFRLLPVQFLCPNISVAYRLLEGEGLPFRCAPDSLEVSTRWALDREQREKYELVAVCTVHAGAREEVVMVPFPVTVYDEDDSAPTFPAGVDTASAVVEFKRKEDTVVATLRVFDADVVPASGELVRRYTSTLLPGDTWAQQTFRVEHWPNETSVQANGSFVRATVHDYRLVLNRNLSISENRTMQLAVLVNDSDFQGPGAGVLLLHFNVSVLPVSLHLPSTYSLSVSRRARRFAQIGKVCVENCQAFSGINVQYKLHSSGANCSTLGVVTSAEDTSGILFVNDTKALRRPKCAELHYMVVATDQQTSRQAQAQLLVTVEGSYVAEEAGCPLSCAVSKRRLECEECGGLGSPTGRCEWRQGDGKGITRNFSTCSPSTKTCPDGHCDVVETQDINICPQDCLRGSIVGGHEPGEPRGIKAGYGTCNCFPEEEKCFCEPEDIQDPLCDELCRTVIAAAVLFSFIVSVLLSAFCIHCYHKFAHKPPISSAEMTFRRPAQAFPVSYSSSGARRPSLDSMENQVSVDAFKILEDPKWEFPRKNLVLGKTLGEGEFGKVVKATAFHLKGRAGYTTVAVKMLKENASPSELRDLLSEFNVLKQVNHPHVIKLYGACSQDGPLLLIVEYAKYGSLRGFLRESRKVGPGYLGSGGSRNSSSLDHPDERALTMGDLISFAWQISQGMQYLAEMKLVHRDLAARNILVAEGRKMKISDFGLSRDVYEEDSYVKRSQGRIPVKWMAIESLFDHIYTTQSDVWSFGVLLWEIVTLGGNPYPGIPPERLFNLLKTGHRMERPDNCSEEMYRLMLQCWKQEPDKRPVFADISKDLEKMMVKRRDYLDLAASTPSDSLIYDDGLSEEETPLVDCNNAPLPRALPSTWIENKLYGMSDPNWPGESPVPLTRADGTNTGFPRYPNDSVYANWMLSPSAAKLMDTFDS
# Description: as §1, §2, §3, §4, §5, §6
# VEGFR 2(KDR) = biological target: T3, VEGFR 2(KDR) (Homo sapiens, UniProt P35968); assay: Z'-LYTE kinase inhibition assay (SelectScreen); type: biochemical
# T3 construct: purchased Thermo Fischer Scientific (SelectScreen service)
# T3 sequence (P35968 20-1356): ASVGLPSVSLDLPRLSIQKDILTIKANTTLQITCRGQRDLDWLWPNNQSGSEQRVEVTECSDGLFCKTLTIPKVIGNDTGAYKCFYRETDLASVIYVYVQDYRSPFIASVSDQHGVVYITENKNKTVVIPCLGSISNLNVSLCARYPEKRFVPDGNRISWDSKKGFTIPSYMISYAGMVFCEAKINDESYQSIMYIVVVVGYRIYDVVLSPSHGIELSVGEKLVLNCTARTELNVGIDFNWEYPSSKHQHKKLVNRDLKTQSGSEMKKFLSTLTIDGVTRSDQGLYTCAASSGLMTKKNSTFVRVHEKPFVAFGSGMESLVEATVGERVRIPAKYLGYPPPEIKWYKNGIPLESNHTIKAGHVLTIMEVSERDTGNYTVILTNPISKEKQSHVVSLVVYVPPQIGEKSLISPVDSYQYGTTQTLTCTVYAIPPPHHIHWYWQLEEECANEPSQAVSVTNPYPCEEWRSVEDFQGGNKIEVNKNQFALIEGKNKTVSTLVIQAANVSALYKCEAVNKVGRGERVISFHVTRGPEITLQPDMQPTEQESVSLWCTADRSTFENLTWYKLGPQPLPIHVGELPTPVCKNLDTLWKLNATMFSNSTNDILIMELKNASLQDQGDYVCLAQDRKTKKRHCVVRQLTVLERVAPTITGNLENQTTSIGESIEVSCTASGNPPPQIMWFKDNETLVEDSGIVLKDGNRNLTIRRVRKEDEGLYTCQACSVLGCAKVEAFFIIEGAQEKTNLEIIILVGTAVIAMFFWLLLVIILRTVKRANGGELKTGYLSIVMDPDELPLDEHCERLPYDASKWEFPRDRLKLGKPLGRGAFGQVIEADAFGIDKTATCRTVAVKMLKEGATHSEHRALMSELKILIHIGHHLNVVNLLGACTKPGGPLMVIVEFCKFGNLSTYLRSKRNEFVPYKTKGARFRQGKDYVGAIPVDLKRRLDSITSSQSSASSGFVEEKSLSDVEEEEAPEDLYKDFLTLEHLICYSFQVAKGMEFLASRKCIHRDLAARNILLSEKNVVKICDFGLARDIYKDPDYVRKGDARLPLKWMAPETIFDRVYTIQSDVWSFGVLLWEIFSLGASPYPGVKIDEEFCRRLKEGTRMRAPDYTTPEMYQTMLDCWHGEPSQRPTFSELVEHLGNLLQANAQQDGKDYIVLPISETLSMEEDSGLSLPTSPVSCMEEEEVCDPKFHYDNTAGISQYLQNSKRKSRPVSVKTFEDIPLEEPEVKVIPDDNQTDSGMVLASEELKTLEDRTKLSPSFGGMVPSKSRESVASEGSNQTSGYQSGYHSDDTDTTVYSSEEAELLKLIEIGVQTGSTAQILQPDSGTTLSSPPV
# Description: as §1, §2, §3, §4, §5, §6
# [1] = five concentrations 10 nM–100 μM
compound,measurement,setting,value
"O=C(Nc1ccc(NC=C2C(=O)Nc3ccccc32)cc1)Nc1nccs1 [Compound 15c, 1-{4-[((2-Oxoindolin-3-ylidene)methyl)amino]phenyl}-3-(thiazol-2-yl)urea]",inhibition at 10 µM,SK-MEL-28,38.7%
same,inhibition at 10 µM,FGFR 1; 10 uM,74%
same,IC50,FGFR 1; [1],1.29 µM
same,inhibition at 10 µM,RET; 10 uM,74%
same,IC50,RET; [1],1.19 µM
same,inhibition at 10 µM,VEGFR 2(KDR); 10 uM,73%
same,IC50,VEGFR 2(KDR); [1],0.117 µM

# Reference: PMC10353187, “Discovery of a new potent oxindole multi-kinase inhibitor among a series of designed 3-alkenyl-oxindoles with ancillary carbonic anhydrase inhibitory activity as antiproliferative agents” (BMC Chemistry, 2023)
